# Laboratory results published in patent US20150141435A1, “2-PYRIDONE ANTIMICROBIAL COMPOSITIONS” (Emergent BioSolutions, priority 2010, published 2015).
# Counter-ions that a name gives are not always drawn. Like-named read-outs stand apart in the source and are kept apart here.
# Tests used:
# Assay type in all cases: cell-based
# S. aureus ATCC 25923 = test: MIC, CLSI broth microdilution (Table 1); conditions: Staphylococcus aureus
# [1] = tested on: S. aureus ATCC 43300 (MRSA, FQ-S); test: MIC, CLSI broth microdilution (Table 1); conditions: Staphylococcus aureus, read-out: MIC S. aureus ATCC 43300 (MRSA, FQ-S)
# [2] = tested on: S. aureus BAA-1720 (MRSA, FQ-R); test: MIC, CLSI broth microdilution (Table 1); conditions: Staphylococcus aureus; Gram positive; MHB, 37° C., 16-20 hours; read-out: MIC S. aureus BAA-1720 (MRSA, FQ-R)
# E. faecium ATCC 19434 = test: MIC, CLSI broth microdilution (Table 1); conditions: Enterococcus faecium
# E. faecalis ATCC 29212 = test: MIC, CLSI broth microdilution (Table 1); conditions: Enterococcus faecalis
# S. pneumonia ATCC 49619 = test: MIC, CLSI broth microdilution (Table 1); conditions: Streptococcus pneumoniae
# E. coli ATCC 25922 = test: MIC, CLSI broth microdilution (Table 2); conditions: Escherichia coli
# A. baumannii ATCC 19606 = test: MIC, CLSI broth microdilution (Table 2); conditions: Acinetobacter baumannii
# P. aeruginosa ATCC 27853 = test: MIC, CLSI broth microdilution (Table 2); conditions: Pseudomonas aeruginosa
# K. pneumoniae ATCC 33495 = test: MIC, CLSI broth microdilution (Table 2); conditions: Klebsiella pneumoniae
# H. influenzae ATCC 49247 = test: MIC, CLSI broth microdilution (Table 2); conditions: Haemophilus influenzae
# [3] = tested on: S. maltophilia ATCC 17677; test: MIC, CLSI broth microdilution (Table 2); conditions: Stenotrophomonas maltophilia
# [4] = ATCC25923, Gram positive, MHB, 37° C., 16-20 hours, read-out: MIC S. aureus ATCC 25923
# [5] = Gram positive, MHB, 37° C., 16-20 hours
# [6] = ATCC19434, Gram positive, MHB, 37° C., 16-20 hours, read-out: MIC E. faecium ATCC 19434
# [7] = ATCC29212, Gram positive, MHB, 37° C., 16-20 hours, read-out: MIC E. faecalis ATCC 29212
# [8] = ATCC49619, Gram positive, MHB, 37° C., 16-20 hours, read-out: MIC S. pneumonia ATCC 49619
# [9] = ATCC25922, Gram negative, MHB, 37° C., 16-20 hours, read-out: MIC E. coli ATCC 25922
# [10] = ATCC19606, Gram negative, MHB, 37° C., 16-20 hours, read-out: MIC A. baumannii B. ATCC 19606
# [11] = ATCC27853, Gram negative, MHB, 37° C., 16-20 hours, read-out: MIC P. aeruginosa ATCC 27853
# [12] = ATCC33495, Gram negative, MHB, 37° C., 16-20 hours, read-out: MIC K. pneumoniae ATCC 33495
# [13] = ATCC49247, Gram negative, MHB, 37° C., 16-20 hours, read-out: MIC H. influenzae ATCC 49247
# [14] = ATCC17677, Gram negative, MHB, 37° C., 16-20 hours, read-out: MIC S. maltophilia ATCC 17677
# [15] = ATCC25923, read-out: MIC S. aureus ATCC 25923
# [16] = ATCC29212, read-out: MIC E. faecalis ATCC 29212
# [17] = ATCC49619, read-out: MIC S. pneumonia ATCC 49619
# [18] = ATCC25922, read-out: MIC E. coli ATCC 25922
# [19] = ATCC19606, read-out: MIC A. baumannii B. ATCC 19606
# [20] = ATCC33495, read-out: MIC K. pneumoniae ATCC 33495
# [21] = ATCC49247, read-out: MIC H. influenzae ATCC 49247
# [22] = ATCC17677, read-out: MIC S. maltophilia ATCC 17677
Structure (SMILES),MIC (S. aureus ATCC 25923; [4]) [µg/mL],"MIC [1, 5] [µg/mL]",MIC [2] [µg/mL],MIC (E. faecium ATCC 19434; [6]) [µg/mL],MIC (E. faecalis ATCC 29212; [7]) [µg/mL],MIC (S. pneumonia ATCC 49619; [8]) [µg/mL],MIC (E. coli ATCC 25922; [9]) [µg/mL],MIC (A. baumannii ATCC 19606; [10]) [µg/mL],MIC (P. aeruginosa ATCC 27853; [11]) [µg/mL],MIC (K. pneumoniae ATCC 33495; [12]) [µg/mL],MIC (H. influenzae ATCC 49247; [13]) [µg/mL],"MIC [3, 14] [µg/mL]",further results
"Cc1c(-c2ccc(N)cc2)c(F)cn2c(=O)c(C(=O)O)cc(C3CC3)c12 [Example 5 K salt, 8-(4-amino-phenyl)-1-cyclopropyl-7-fluoro-9-methyl-4-oxo-4H-quinolizine-3-carboxylic acid]",–,–,–,–,–,–,–,–,–,–,–,–,"MIC (S. aureus ATCC 25923; [15]): 0.008 µg/mL; MIC [1]: 0.008 µg/mL; MIC (E. faecium ATCC 19434; ATCC19434, read-out: MIC E. faecium ATCC 19434): 0.5 µg/mL; MIC (E. faecalis ATCC 29212; [16]): 0.016 to 0.032 µg/mL; MIC (S. pneumonia ATCC 49619; [17]): 0.032 µg/mL; MIC (E. coli ATCC 25922; [18]): 0.064 µg/mL; MIC (A. baumannii ATCC 19606; [19]): 0.064 µg/mL; MIC (P. aeruginosa ATCC 27853; ATCC27853, read-out: MIC P. aeruginosa ATCC 27853): 2 µg/mL; MIC (K. pneumoniae ATCC 33495; [20]): 0.125 to 0.25 µg/mL; MIC (H. influenzae ATCC 49247; [21]): ≤ 0.004 µg/mL; MIC [3, 22]: 0.125 µg/mL"
"Cc1c(-c2ccc(C(N)=O)cc2)c(F)cn2c(=O)c(C(=O)O)cc(C3CC3)c12 [Example 6 K salt, 8-(4-carbamoyl-phenyl)-1-cyclopropyl-7-fluoro-9-methyl-4-oxo-4H-quinolizine-3-carboxylic acid]",–,–,–,–,–,–,–,–,–,–,–,–,"MIC (S. aureus ATCC 25923; [15]): 0.008 to 0.016 µg/mL; MIC [1]: 0.008 µg/mL; MIC (E. faecalis ATCC 29212; [16]): 0.016 µg/mL; MIC (S. pneumonia ATCC 49619; [17]): 0.032 µg/mL; MIC (E. coli ATCC 25922; [18]): 0.125 µg/mL; MIC (A. baumannii ATCC 19606; [19]): 0.5 µg/mL; MIC (K. pneumoniae ATCC 33495; [20]): 0.5 µg/mL; MIC (H. influenzae ATCC 49247; [21]): ≤ 0.004 µg/mL; MIC [3, 22]: 0.5 µg/mL"
"Cc1c(-c2cccc(F)c2)ccn2c(=O)c(C(=O)O)cc(C3CC3)c12 [Example 10 K salt, 1-cyclopropyl-8-(3-fluoro-phenyl)-9-methyl-4-oxo-4H-quinolizine-3-carboxylic acid]",0.008,0.008,0.5,0.5,0.032,0.125,0.125,0.25,2,0.25,0.008,0.25 to 0.5,–
"CC(=O)Nc1ccc(-c2ccn3c(=O)c(C(=O)O)cc(C4CC4)c3c2C)cc1 [Example 13 K salt, 8-(4-acetamido-phenyl)-1-cyclopropyl-9-methyl-4-oxo-4H-quinolizine-3-carboxylic acid]",0.008 to 0.016,0.008,0.25,0.5,0.016,0.032,0.125,0.5,8,0.5,0.016,0.5,–
"CNc1ccc(-c2ccn3c(=O)c(C(=O)O)cc(C4CC4)c3c2C)cc1 [Example 15 K salt, 1-cyclopropyl-9-methyl-8-(4-(methylamino)-phenyl)-4-oxo-4H-quinolizine-3-carboxylic acid]",0.016,0.016,1,> 8,0.032,0.064,0.125,0.5 to 1,> 8,1,0.016 to 0.032,0.5,–
"Cc1c(-c2cccnc2)ccn2c(=O)c(C(=O)O)cc(C3CC3)c12 [Example 17 K salt, 1-cyclopropyl-9-methyl-4-oxo-8-(pyridin-3-yl)-4H-quinolizine-3-carboxylic acid]",0.016,0.016,1,1,0.064,0.125,0.064,0.125 to 0.25,2 to 4,0.125,≤ 0.004,0.25,–

# More lines, main results first:
MIC (S. aureus ATCC 25923; [4]) [µg/mL],"MIC [1, 5] [µg/mL]",MIC [2] [µg/mL],MIC (E. faecium ATCC 19434; [6]) [µg/mL],MIC (E. faecalis ATCC 29212; [7]) [µg/mL],MIC (S. pneumonia ATCC 49619; [8]) [µg/mL],MIC (E. coli ATCC 25922; [9]) [µg/mL],MIC (A. baumannii ATCC 19606; [10]) [µg/mL],MIC (P. aeruginosa ATCC 27853; [11]) [µg/mL],MIC (K. pneumoniae ATCC 33495; [12]) [µg/mL],MIC (H. influenzae ATCC 49247; [13]) [µg/mL],"MIC [3, 14] [µg/mL]",Structure (SMILES),further results
0.016,0.016,0.25,1,0.032,0.125,0.125,0.125,8,0.25,0.008,0.25,"Cc1c(-c2cccc(N)c2)c(F)cn2c(=O)c(C(=O)O)cc(C3CC3)c12 [Example 4 K salt, 8-(3-amino-phenyl)-1-cyclopropyl-7-fluoro-9-methyl-4-oxo-4H-quinolizine-3-carboxylic acid]",–
0.008,0.008,0.25,0.5,0.032,0.032 to 0.064,0.064,0.125,4,0.125 to 0.25,0.008,0.25,"Cc1c(-c2ccc(N)cc2F)ccn2c(=O)c(C(=O)O)cc(C3CC3)c12 [Example 7 K salt, 8-(4-amino-2-fluoro-phenyl)-1-cyclopropyl-9-methyl-4-oxo-4H-quinolizine-3-carboxylic acid]",–
≤ 0.004,≤ 0.004,0.125,0.25,0.016,0.032,0.064,0.064,2,0.125,≤ 0.004,0.125,"Cc1c(-c2ccc(N)c(Cl)c2)ccn2c(=O)c(C(=O)O)cc(C3CC3)c12 [Example 11 K salt, 8-(4-amino-3-chloro-phenyl)-1-cyclopropyl-9-methyl-4-oxo-4H-quinolizine-3-carboxylic acid]",–
0.016 to 0.032,0.016,0.5 to 1,1,0.064,0.25,0.25,0.25 to 0.5,8,0.5,0.032,0.5,"COc1cc(-c2ccn3c(=O)c(C(=O)O)cc(C4CC4)c3c2C)ccc1N [Example 12 K salt, 8-(4-amino-3-methoxy-phenyl)-1-cyclopropyl-9-methyl-4-oxo-4H-quinolizine-3-carboxylic acid]",–
0.016,0.016,0.5,8,0.064,0.125,0.25,0.5 to 1,> 8,1,0.016,1,"Cc1c(-c2ccc(NS(C)(=O)=O)cc2)ccn2c(=O)c(C(=O)O)cc(C3CC3)c12 [Example 14 K salt, 1-cyclopropyl-9-methyl-8-(4-(methylsulfonamido)-phenyl)-4-oxo-4H-quinolizine-3-carboxylic acid]",–
0.008,0.008,0.25,0.25,0.032,0.064,0.032,0.064,1,0.064 to 0.25,0.008,0.125,"Cc1c(-c2ccc(N)cc2)ccn2c(=O)c(C(=O)O)cc(C3CC3)c12 [Example 18 K salt, 8-(4-amino-phenyl)-1-cyclopropyl-9-methyl-4-oxo-4H-quinolizine-3-carboxylic acid]",–
0.016,0.016,0.25,1,0.032,0.064 to 0.125,0.064 to 0.125,0.125 to 0.25,2,0.25,0.008,0.25,"Cc1cc(-c2ccn3c(=O)c(C(=O)O)cc(C4CC4)c3c2C)ccc1N [Example 19 K salt, 8-(4-amino-3-methyl-phenyl)-1-cyclopropyl-9-methyl-4-oxo-4H-quinolizine-3-carboxylic acid]",–
0.008,0.016,0.5,4,0.032,0.125,0.125,0.25,4,0.25,0.016,0.5,"Cc1c(-c2ccc3[nH]ccc3c2)ccn2c(=O)c(C(=O)O)cc(C3CC3)c12 [Example 22 K salt, 1-cyclopropyl-8-(1H-indol-5-yl)-9-methyl-4-oxo-4H-quinolizine-3-carboxylic acid]",–
